# Patent publication US9567302B2, “Carbamate compounds and of making and using same” (Abide Therapeutics, Inc., priority 2012, dated 2017)
# Assays:
# Format in all cases: biochemical
# Set-up in all cases: from tissue; host or cells: mouse brain membrane fraction
# Details in all cases: Table 2, mouse proteome, 30 min preincubation at 37° C.
# ABHD6 = molecular target: T1, ABHD6 (Mus musculus, UniProt Q8R2Y0); assay: In vitro competitive activity-based protein profiling (FP-Rh), mouse ABHD6
# T1 sequence (Q8R2Y0 1-336): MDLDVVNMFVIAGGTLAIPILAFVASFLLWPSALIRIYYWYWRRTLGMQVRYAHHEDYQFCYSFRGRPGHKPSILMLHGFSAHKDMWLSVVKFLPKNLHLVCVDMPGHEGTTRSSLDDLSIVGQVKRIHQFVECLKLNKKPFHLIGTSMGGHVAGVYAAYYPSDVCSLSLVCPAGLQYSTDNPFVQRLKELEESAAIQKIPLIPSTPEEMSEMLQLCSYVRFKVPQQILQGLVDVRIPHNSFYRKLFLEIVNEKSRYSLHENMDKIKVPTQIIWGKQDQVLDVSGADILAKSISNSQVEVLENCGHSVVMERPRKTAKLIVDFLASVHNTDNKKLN
# Procedure: (§1) In Vitro Competitive Activity-Based Protein Profiling.
# (§2) Proteomes (mouse brain membrane fraction or cell lysates) (50 μL, 1.0 mg/ml total protein concentration) were preincubated with varying concentrations of inhibitors at 37° C. After 30 min, FP-Rh (1.0 μL, 50 μM in DMSO) was added and the mixture was incubated for another 30 min at 37° C. Reactions were quenched with SDS loading buffer (50 μL—4×) and run on SDS-PAGE.
# FAAH = molecular target: T2, FAAH (Mus musculus, UniProt O08914); assay: In vitro competitive activity-based protein profiling (FP-Rh), mouse FAAH
# T2 sequence (O08914 1-579): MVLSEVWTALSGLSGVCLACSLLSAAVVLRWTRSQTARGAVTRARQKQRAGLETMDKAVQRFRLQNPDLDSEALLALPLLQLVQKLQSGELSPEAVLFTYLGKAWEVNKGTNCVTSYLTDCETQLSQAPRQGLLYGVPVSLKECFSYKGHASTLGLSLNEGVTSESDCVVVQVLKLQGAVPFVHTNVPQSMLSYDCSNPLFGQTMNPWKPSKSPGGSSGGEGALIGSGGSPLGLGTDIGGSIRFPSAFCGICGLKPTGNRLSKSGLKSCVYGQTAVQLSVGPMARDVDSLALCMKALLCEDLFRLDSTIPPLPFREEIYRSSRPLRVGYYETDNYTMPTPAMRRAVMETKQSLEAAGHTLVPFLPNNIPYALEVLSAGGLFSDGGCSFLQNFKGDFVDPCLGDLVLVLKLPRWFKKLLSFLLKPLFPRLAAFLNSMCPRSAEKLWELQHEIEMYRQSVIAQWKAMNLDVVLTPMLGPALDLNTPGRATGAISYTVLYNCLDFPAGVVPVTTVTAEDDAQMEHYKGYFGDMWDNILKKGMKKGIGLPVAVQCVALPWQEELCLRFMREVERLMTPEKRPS
# Procedure: as §1, §2
# MAGL = molecular target: T3, MAGL (Mus musculus, UniProt O35678); assay: In vitro competitive activity-based protein profiling (FP-Rh), mouse MAGL
# T3 sequence (O35678 1-303): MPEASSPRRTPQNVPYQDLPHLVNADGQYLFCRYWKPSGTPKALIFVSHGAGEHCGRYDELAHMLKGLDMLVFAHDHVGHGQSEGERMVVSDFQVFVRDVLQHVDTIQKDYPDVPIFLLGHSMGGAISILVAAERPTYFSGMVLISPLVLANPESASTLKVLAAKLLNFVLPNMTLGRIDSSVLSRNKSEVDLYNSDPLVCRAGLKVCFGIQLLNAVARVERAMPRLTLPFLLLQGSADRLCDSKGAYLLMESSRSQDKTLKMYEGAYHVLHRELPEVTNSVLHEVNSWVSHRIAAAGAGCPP
# Procedure: as §1, §2
IC50 (ABHD6) [nM],IC50 (FAAH) [nM],IC50 (MAGL) [nM],Compound
1000 to 10000,> 10000,100 to 1000,"O=C(ON1C(=O)CCC1=O)N1CCN(Cc2cc(Cl)ccc2N2CCOCC2)CC1 [Example 92, 2,5-Dioxopyrrolidin-1-yl 4-{[5-chloro-2-(morpholin-4-yl)phenyl]methyl}piperazine-1-carboxylate]"
> 10000,> 10000,100 to 1000,"O=C(ON1C(=O)CCC1=O)N1CCN(Cc2cccc(F)c2N2CCOCC2)CC1 [Example 93, 2,5-dioxopyrrolidin-1-yl 4-{[3-fluoro-2-(morpholin-4-yl)phenyl]methyl}piperazine-1-carboxylate]"
1000 to 10000,> 10000,1000 to 10000,"O=C(ON1C(=O)CCC1=O)N1CCN(Cc2ccc(N3CCOCC3)cc2Cl)CC1 [Example 94, 2,5-Dioxopyrrolidin-1-yl 4-(2-chloro-4-morpholinobenzyl)piperazine-1-carboxylate]"
100 to 1000,> 10000,< 100,"O=C(ON1C(=O)CCC1=O)N1CCN(Cc2ccc(Cl)cc2-n2cc(Cl)cn2)CC1 [Example 95, 2,5-Dioxopyrrolidin-1-yl 4-(4-chloro-2-(4-chloro-1H-pyrazol-1-yl)benzyl)piperazine-1-carboxylate]"
100 to 1000,> 10000,1000 to 10000,"O=C(ON1C(=O)CCC1=O)N1CCN(Cc2c(Cl)cccc2N2CCCC2)CC1 [Example 97, 2,5-Dioxopyrrolidin-1-yl 4-{[2-chloro-6-(pyrrolidin-1-yl)phenyl]methyl}piperazine-1-carboxylate]"
100 to 1000,> 10000,< 100,"O=C(ON1C(=O)CCC1=O)N1CCN(Cc2cc(Cl)ccc2N2CCCC2)CC1 [Example 98, 2,5-Dioxopyrrolidin-1-yl 4-{[5-chloro-2-(pyrrolidin-1-yl)phenyl]methyl}piperazine-1-carboxylate]"
100 to 1000,> 10000,1000 to 10000,"O=C(ON1C(=O)CCC1=O)N1CCN(Cc2ccc(N3CCOCC3)c(Cl)c2)CC1 [Example 101, 2,5-dioxopyrrolidin-1-yl 4-(3-chloro-4-morpholinobenzyl)piperazine-1-carboxylate]"
100 to 1000,> 10000,100 to 1000,"O=C(ON1C(=O)CCC1=O)N1CCN(Cc2ccc(N3CCCC3)cc2OC(F)(F)F)CC1 [Example 104, 2,5-Dioxopyrrolidin-1-yl 4-{[4-(pyrrolidin-1-yl)-2-(trifluoromethoxy)phenyl]methyl}piperazine-1-carboxylate]"
1000 to 10000,> 10000,< 100,"O=C(ON1C(=O)CCC1=O)N1CCN(Cc2cccc(Cl)c2N2CCCC2)CC1 [Example 106, 2,5-Dioxopyrrolidin-1-yl 4-{[3-chloro-2-(pyrrolidin-1-yl)phenyl]methyl}piperazine-1-carboxylate]"
100 to 1000,> 10000,< 100,"O=C(ON1C(=O)CCC1=O)N1CCN(Cc2cccc(F)c2N2CCCC2)CC1 [Example 107, 2,5-Dioxopyrrolidin-1-yl 4-{[3-fluoro-2-(pyrrolidin-1-yl)phenyl]methyl}piperazine-1-carboxylate]"
1000 to 10000,> 10000,1000 to 10000,"O=C(ON1C(=O)CCC1=O)N1CCN(Cc2ccc(-n3cccn3)c(F)c2)CC1 [Example 108, 2,5-Dioxopyrrolidin-1-yl 4-(3-fluoro-4-(1H-pyrazol-1-yl)benzyl)piperazine-1-carboxylate]"
1000 to 10000,> 10000,< 100,"O=C(ON1C(=O)CCC1=O)N1CCN(Cc2ccc(Cl)cc2N2CCC3(CCOCC3)C2)CC1 [Example 109, 2,5-Dioxopyrrolidin-1-yl 4-[(4-chloro-2-{8-oxa-2-azaspiro[4.5]decan-2-yl}phenyl)methyl]piperazine-1-carboxylate]"
100 to 1000,> 10000,< 100,"O=C(ON1C(=O)CCC1=O)N1CCN(Cc2ccc(Cl)cc2N2Cc3cccnc3C2)CC1 [Example 114, 2,5-Dioxopyrrolidin-1-yl 4-[(4-chloro-2-{5H,6H,7H-pyrrolo[3,4-b]pyridin-6-yl}phenyl)methyl]piperazine-1-carboxylate]"
1000 to 10000,> 10000,100 to 1000,"CC(=O)N1CCN(c2cc(Cl)ccc2CN2CCN(C(=O)ON3C(=O)CCC3=O)CC2)CC1 [Example 115, 2,5-Dioxopyrrolidin-1-yl 4-{[2-(4-acetylpiperazin-1-yl)-4-chlorophenyl]methyl}piperazine-1-carboxylate]"
1000 to 10000,> 10000,1000 to 10000,"COC(=O)c1cc(CN2CCN(C(=O)ON3C(=O)CCC3=O)CC2)ccc1N1CCOCC1 [Example 118, 2,5-Dioxopyrrolidin-1-yl 4-(3-(methoxycarbonyl)-4-morpholinobenzyl)piperazine-1-carboxylate]"
100 to 1000,> 10000,< 100,"Cc1c(CN2CCN(C(=O)ON3C(=O)CCC3=O)CC2)cccc1N1CCOCC1 [Example 121, 2,5-Dioxopyrrolidin-1-yl 4-(2-methyl-3-morpholinobenzyl)piperazine-1-carboxylate]"
100 to 1000,> 10000,< 100,"Cc1c(CN2CCN(C(=O)ON3C(=O)CCC3=O)CC2)cccc1N1CCCC1 [Example 123, 2,5-Dioxopyrrolidin-1-yl 4-(2-methyl-3-(pyrrolidin-1-yl)benzyl)piperazine-1-carboxylate]"
100 to 1000,> 10000,< 100,"O=C(ON1C(=O)CCC1=O)N1CCN(Cc2ccc(F)c(N3CCCC3)c2)CC1 [Example 124, 2,5-Dioxopyrrolidin-1-yl 4-(4-fluoro-3-(pyrrolidin-1-yl)benzyl)piperazine-1-carboxylate]"
100 to 1000,> 10000,< 100,"O=C(ON1C(=O)CCC1=O)N1CCN(Cc2ccc(Cl)cc2N2CCCCC2)CC1 [Example 129, 2,5-Dioxopyrrolidin-1-yl 4-(4-chloro-2-(piperidin-1-yl)benzyl)piperazine-1-carboxylate]"
1000 to 10000,> 10000,< 100,"O=C(ON1C(=O)CCC1=O)N1CCN(Cc2ccc(Cl)cc2N2CC3CCC(C2)O3)CC1 [Example 130, 2,5-Dioxopyrrolidin-1-yl 4-(2-(8-oxa-3-azabicyclo[3.2.1]octan-3-yl)-4-chlorobenzyl)piperazine-1-carboxylate]"
1000 to 10000,> 10000,< 100,"O=C(ON1C(=O)CCC1=O)N1CCN(Cc2ccc(Cl)cc2N2CCOC3CCCC32)CC1 (stereo not drawn) [Example 131, 2,5-Dioxopyrrolidin-1-yl 4-(4-chloro-2-(hexahydrocyclopenta[b][1,4]oxazin-4(4aH)-yl)benzyl)piperazine-1-carboxylate]"
100 to 1000,> 10000,< 100,"O=C(ON1C(=O)CCC1=O)N1CCN(Cc2cc(Cl)cc(N3CCCCC3)c2)CC1 [Example 132, 2,5-Dioxopyrrolidin-1-yl 4-(3-chloro-5-(piperidin-1-yl)benzyl)piperazine-1-carboxylate]"
< 100,> 10000,< 100,"O=C(ON1C(=O)CCC1=O)N1CCN(Cc2cccc(N3CCCCC3)c2)CC1 [Example 133, 2,5-Dioxopyrrolidin-1-yl 4-(3-(piperidin-1-yl)benzyl)piperazine-1-carboxylate]"
